One assay deals with D2/3R. The assay can be described thus: In vitro autoradiography of rat brain slices. It counts as binding, Sprague-Dawley rats. On the procedure: In vitro autoradiography assay was performed as previously described. Frozen brains of young (10–12 weeks of age; 300–350 g body weight) male Sprague-Dawley rats (Harlan, Netherlands) were cut at −12 °C into sagittal slices 20 μm thick using a Leica microtome, and the slices were thaw-mounted on Superfrost (70 × 22 mm, Fischer) adhesive slides. Only slices containing both striatal and cerebellar regions were used. The slides with slices mounted them were allowed to dry, then put into storage boxes with silica gel bags and stored at −80 °C.
On the day of the experiment (within 1 week from the preparation of the slices), the slides were taken out of storage and allowed to come to room temperature for 5–10 min. Then, 1–1.2 mL of incubation buffer (50 mM Tris-HCl, 5 mM KCl, 2 mM CaCl2, 2 mM MgCl2, 120 mM NaCl, pH 7.4 25 °C) was applied per slide, and the slides were pre-incubated for 15 min at room temperature. The buffer was then removed, and the slides were placed into staining jars containing radioligand solution (concentration range of 0.1–10 nM) in the incubation buffer with or without 10 μM raclopride (D2/3 antagonist) or 100 μM guanosine-5'-triphosphate sodium salt (GTP, stimulator of G-protein uncoupling from the receptors). After 35 min of incubation at 37 °C, slides were washed once with ice-cold incubation buffer (3.5 min) and dipped for 30 s into ice-cold distilled water to remove buffer salts.
After drying the slides in a stream of room-temperature air, they were exposed on phosphor storage screens for 6–10 h. The storage screens were read by Cyclone Storage Phosphor System (Packard Instruments Co.). Quantification of plate readings was done with OptiQuant software (version 3.00, Packard Instruments Co.).
(§1) Degree of D2/3R-specific binding of the tracers was characterized by BPND (as given above) or the specific binding ratio (SBR) given as target region activity/cerebellar activity - 1. Both were calculated under control conditions and in response to the raclopride challenge.

For the next assay, the system named is striatal D2/3R. The assay can be described thus: Ex vivo autoradiography study in rats. How it is done: To further assess the specific binding of [^18F]FEt-AMC13 to the striatal D2/3R, two groups of rats were anesthetized, pre-treated with saline (n = 3) or raclopride (n = 3), and 26 ± 3 min later injected with a bolus of [^18F]FEt-AMC13 (4.2 ± 1.4 MBq, 0.14 ± 0.04 nmol/kg) into the penile vein. Rats were sacrificed by heart extirpation 35 min later. Brains were quickly extracted and separated into two halves along the sagittal symmetry plane or along the coronal plane spanning the thalamus.
One half of the brain (rostral or randomly taken left/right) was quickly frozen over liquid nitrogen and prepared for cutting on the microtome in the same manner as brains used for in vitro autoradiography. Slices 40 μm thick were cut, mounted on Superfrost glass slides, permitted to dry, and then directly applied to the phosphor storage screens.
as §1

Structures are written as SMILES. Where “and” joins values, the source holds several entries; their conditions need not be identical. Equal entries are not always repeated.

The values below come from paper PMC4512978, “Synthesis and evaluation in rats of homologous series of [^18F]-labeled dopamine D2/3 receptor agonists based on the 2-aminomethylchroman scaffold as potential PET tracers” (EJNMMI Research, 2015).

In the case of `Oc1ccc2c(c1)O[C@@H](CNCc1ccc(OCC[18F])cc1)CC2` [[^18F]FEt-AMC13], in the assay with D2/3R (10 μM raclopride, compared to control conditions), the “decrease of striatal SBR (D2/3R-specific binding) by raclopride in vitro” value is 81%. Moreover, the “mean striatum-to-cerebellum uptake ratio in vitro” value in the assay on D2/3R (rat brain slices) is listed as 4.4. In the assay with D2/3R (with 10 μM raclopride), the “Striatal SBR % change relative to control condition, Raclopride” value is on record as −81% and the “Striatal SBR, Raclopride” value was determined as 0.63 ± 0.53. Also, in the assay on D2/3R (with 100 μM GTP), the “Striatal SBR % change relative to control condition, GTP” value is recorded as −81% and the “Striatal SBR, GTP” value came to 0.66 ± 0.52. Besides, the “Ex vivo autoradiography-based SBR” value in the assay on striatal D2/3R (1 mg/kg raclopride) turned out to be 1.06 ± 0.17. Moreover, the “decrease of ex vivo autoradiography-based SBR” value in the assay with striatal D2/3R (1 mg/kg raclopride, p < 0.01) is given as 39%. The “Striatum-to-cerebellum uptake ratio (ex vivo autoradiography)” value with striatal D2/3R (35 min post-injection, saline pre-treated rats) was 2.8 and 2.81 ± 0.29. Moreover, the “Ex vivo autoradiography-based SBR” value with striatal D2/3R (saline pre-treated) was 1.81 ± 0.29.
